Measured values published in US8835643B2, “Molecules, compositions, and methods for light absorption” (Empire Technology Development LLC, priority 2012, dated 2014).

Tests used:
[1] = Critical wavelength method, evaluation as UVA protector; format: physicochemical
Description: The term “critical wavelength method” denotes a method of measuring of the breadth of UVA protection using the “critical wavelength”. To obtain this value, the absorbance of the molecule or material is integrated (summed) from 290 nm across the UV wavelengths until the sum reaches 90% of the total absorbance of the sunscreen in the UV region of 290-400 nm. The wavelength where the summed absorbance reaches 90% of the total absorbance is the “critical wavelength”. The critical wavelength can be defined by the following equation: […]
The critical wavelength method was then employed for evaluation of the molecule CDBA as a UVA protector. The results are shown in FIGS. 5A-5C, which are graphs depicting the data using the Critical Wavelength method to evaluate CDBA as a UVA protector. […] Its 90% value was 124.030. […] Given this, the λc was determined to be between 389-390 nm. Furthermore, the results can be summarized as follows: • After 6 minutes of irradiation of UVA radiation (356 nm or 357 nm), 100% of the composition was isomeric. • After 8 minutes of irradiation of visible light radiation (442 nm or 443 nm), 99% of the molecules were isomeric. • After 3 hours of daylight irradiation, more than 90% of the molecules were isomeric, trans.

[2] = Molar absorptivity in CHCl3 (UV-Vis spectrophotometer); format: physicochemical; conditions: for κ (molar absorptivity): CHCl3; for λmax (λCHCl3): in CHCl3
Protocol: The tests included observing the UVA-absorbing condition before and after light exposure and noting the molar absorption coefficient. […] The ultraviolet spectra of CHCl3 were measured using an UV-Vis spectrophotometer (U3010, Hitachi, Japan). All experiments were carried out at room temperature unless otherwise stated.

[3] = system: back of the rats
Protocol: Phototoxicity of various azo-compounds was examined.
The UV source for the in vivo testing involved a 400 W high-pressure mercury lamp (LCE-9, Zhengzhou, China) with a filter transmitting the wavelength between 320-380 nm. Four test sites (4 cm^2) were selected on the back of the rats. The sites were located between the breast and scapulae and lateral to the midline. The test product was applied at the amount of 20 ul/cm^2 (0.06 mg CDBA) and spread uniformly over one test site using a finger cot. The product was allowed to dry for 15 min before starting the UV exposure. On each test site, four squares (1 cm×1 cm) were defined, on an unprotected skin area of the rat dorsal and on a sunscreen-protected area. The skin was kept at a distance of 15 cm from the light source and the time of illumination was 5 hours on the test sites.

[4] = Photoisomerization tests under UV, visible and natural light; format: physicochemical; conditions: for time of UV light irradiation to convert trans into cis form / time of visible light irradiation to reach the photostationary state of trans form: 400 W Hg lamp; for time of UV light irradiation to convert trans into cis form: 275-400 nm filter, room temperature; for time of visible light irradiation to reach the photostationary state of trans form: filter >400 nm; for time of natural light irradiation to reach the photostationary state of trans form: fluorescent lamps, about 500 lx
Protocol: Photoisomerization tests were carried out on compounds PyB (Formula XIV) and iQB (Formula XV), which were synthesized and characterized by MS, IR, ^1H NMR spectra.
The tests included observing the UVA-absorbing condition before and after light exposure and noting the molar absorption coefficient. The test also included determining the photo isomerization conditions under illumination of UVA, visible light and daylight. The compounds were irradiated with a 400 W high-pressure Hg lamp (LCE-9, Zhengzhou, China). A bandpass filter (λT=275˜400 nm) was used for UV light and a bandpass filter (λT>400 nm) was used for visible light. The light distance was 20 cm. For natural light irradiation, samples were irradiated with fluorescent lamps (21 W×2, luminous intensity about 500 lx), and the light distance was 120 cm. The ultraviolet spectra of CHCl3 were measured using an UV-Vis spectrophotometer (U3010, Hitachi, Japan). All experiments were carried out at room temperature unless otherwise stated.
It was estimated from the spectral change that trans-PyB and iQB were converted into the cis-PyB or iQB after 6 or 8 min (respectively) of UV light irradiation (FIGS. 3A and 4A); it took 8 min of visible light irradiation to reach the photostationary state of trans-PyB or iQB (FIGS. 3B and 4B) and 3.0 h of natural light irradiation to reach the photostationary state of trans-PyB or iQB (FIGS. 3C and 4C).

| SMILES | κ (molar absorptivity) ([2]; at 442 nm) | κ (molar absorptivity) ([2]; at λmax) | A (absorbance) ([2]; at λmax, CHCl3, C 0.01 mg/mL) | λmax (λCHCl3) [2] | time of UV light irradiation to convert trans into cis form [4] | time of visible light irradiation to reach the photostationary state of trans form [4] | time of natural light irradiation to reach the photostationary state of trans form [4] | further results |
| --- | --- | --- | --- | --- | --- | --- | --- | --- |
| CCN(CC)CCCCOc1ccc(N=Nc2ccc(C(=O)OC3CCC4(C)C(=CCC5C4CCC4(C)C(C(C)CCCC(C)C)CCC54)C3)cc2)cc1 (centres unmarked) [CDBA, 4-cholesterocarbonyl-4′-(N,N-diethylaminebutyloxyl)azobenzene] | 3174 L/mol/cm | 24726 L/mol/cm | 0.335 | 357 (λmax) nm | – | – | – | integrated area ([1]; 290-389 (FIG. 5C)): 123.707; integrated area ([1]; 290-390 (FIG. 5B)): 125.025; 90% value of integrated area ([1]; 290 nm to 400 nm (FIG. 5A)): 124.030; integrated area ([1]; 290 nm to 400 nm (FIG. 5A)): 137.811; critical wavelength λc ([1]; wavelength where summed absorbance from 290 nm reaches 90% of the 290-400 nm total): 389-390 nm; A (absorbance) ([2]; at 442 nm, CHCl3, C 0.01 mg/mL): 0.043; protection of skin from UV irradiation ([3]; rat back, in liposome, 20 ul/cm2 (0.06 mg CDBA), 320-380 nm for 5 h, seen three days after): effectively protected skin from UV irradiation; adverse effect on skin ([3]; rat, in vivo): no adverse effect including allergy |
| CC(C)CCCC(C)C1CCC2C3CC=C4CC(OC(=O)c5ccc(N=Nc6ccc(OCCCC[n+]7ccccc7)cc6)cc5)CCC4(C)C3CCC12C.[Br-] (centres unmarked) [PyB] | 2227 L/mol/cm | 14464 L/mol/cm | – | 356 (λmax) nm | 6 min | 8 min | 3.0 h | A (absorbance) ([2]; at 442 nm, CHCl3, C 0.03 mg/mL): 0.081; A (absorbance) ([2]; at λmax, CHCl3, C 0.03 mg/mL): 0.526 |
| COc1ccc(C(=O)CC(=O)c2ccc(C(C)(C)C)cc2)cc1 [avobenzone, reference compound] | – | 23870 L/mol/cm | 0.770 | 358 (λmax) nm | – | – | – | κ (molar absorptivity) ([2]; at 320 nm): 10354 L/mol/cm; A (absorbance) ([2]; at 320 nm, CHCl3, C 0.01 mg/mL): 0.334; κ (molar absorptivity) ([2]; at 360 nm): 23715 L/mol/cm; A (absorbance) ([2]; at 360 nm, CHCl3, C 0.01 mg/mL): 0.765; κ (molar absorptivity) ([2]; at 400 nm): 2294 L/mol/cm; A (absorbance) ([2]; at 400 nm, CHCl3, C 0.01 mg/mL): 0.074 |
| CC(C)CCCC(C)C1CCC2C3CC=C4CC(OC(=O)c5ccc(N=Nc6ccc(OCCCC[n+]7ccc8ccccc8c7)cc6)cc5)CCC4(C)C3CCC12C.[Br-] (centres unmarked) [iQB] | – | 21176 L/mol/cm | 0.242 | 357 (λmax) nm | 8 min | 8 min | 3.0 h | – |
